Laboratory results as given in paper PMC11876601 (Molecular Systems Biology, 2025).
Where two headings read alike, the source gives them in different places.

Key:
Assay in all cases: cells
[1] = system: AsPC-1; set-up: Viability of PDAC cell lines, ATPlite luminescence, 11-dose single-agent curve fit; details: Homo sapiens, ASPC1, 72 h, read-out: EC50 [nM]
Method: (§1) Afterward, small amounts were transferred to 384-well intermediate plates (Greiner Bio-One GmbH, Germany). […] For drug combination screening, 1000 to 5000 cells were seeded into 384-well plates (CulturPlate™, Perkin Elmer, MA, USA) using a Multidrop™ Combi Reagent Dispenser (Thermo Scientific, MA, USA) in 50 µl medium per well 24 h prior to drug treatment (seeding densities see Appendix Table S1). […] The final DMSO concentration in each well was 0.2%. […] Eight wells per plate without library drug served as negative controls, and sixteen wells per plate containing 5 µM Staurosporine served as positive controls. […] Next, we analyzed the drug sensitivity of immortalized duct cell line HPDE to detect effects unrelated to pancreatic cancer.

[2] = system: BxPC-3; set-up: Viability of PDAC cell lines, ATPlite luminescence, 11-dose single-agent curve fit; details: Homo sapiens, BXPC-3, 72 h, read-out: EC50 [nM]
Method: as §1

[3] = system: Capan-1; set-up: Viability of PDAC cell lines, ATPlite luminescence, 11-dose single-agent curve fit; details: Homo sapiens, CAPAN-1, 72 h, read-out: EC50 [nM]
Method: as §1

[4] = system: Colo-357; set-up: Viability of PDAC cell lines, ATPlite luminescence, 11-dose single-agent curve fit; details: Homo sapiens, COLO357, 72 h, read-out: EC50 [nM]
Method: as §1

[5] = system: Dan-G; set-up: Viability of PDAC cell lines, ATPlite luminescence, 11-dose single-agent curve fit; details: 72 h, read-out: EC50 [nM]
Method: as §1

[6] = system: FAMPAC; set-up: Viability of PDAC cell lines, ATPlite luminescence, 11-dose single-agent curve fit; details: 72 h, read-out: EC50 [nM]
Method: as §1

[7] = system: HPDE; set-up: Viability of PDAC cell lines, ATPlite luminescence, 11-dose single-agent curve fit; details: HPDE, 72 h, read-out: EC50 [nM]
Method: as §1

[8] = system: HuP-T4; set-up: Viability of PDAC cell lines, ATPlite luminescence, 11-dose single-agent curve fit; details: Homo sapiens, HuP-T4, 72 h, read-out: EC50 [nM]
Method: as §1

[9] = system: MiaPaCa-2; set-up: Viability of PDAC cell lines, ATPlite luminescence, 11-dose single-agent curve fit; details: Homo sapiens, MIA PaCa-2, 72 h, read-out: EC50 [nM]
Method: as §1

[10] = system: PANC-1; set-up: Viability of PDAC cell lines, ATPlite luminescence, 11-dose single-agent curve fit; details: Homo sapiens, PANC-1, 72 h, read-out: EC50 [nM]
Method: as §1

[11] = system: PSN-1; set-up: Viability of PDAC cell lines, ATPlite luminescence, 11-dose single-agent curve fit; details: Homo sapiens, PSN1, 72 h, read-out: EC50 [nM]
Method: as §1

[12] = system: PaTu-8988-T; set-up: Viability of PDAC cell lines, ATPlite luminescence, 11-dose single-agent curve fit; details: Homo sapiens, PaTu 8988t, 72 h, read-out: EC50 [nM]
Method: as §1

[13] = system: Suit2-07; set-up: Viability of PDAC cell lines, ATPlite luminescence, 11-dose single-agent curve fit; details: 72 h, read-out: EC50 [nM]
Method: as §1

[14] = system: FAMPAC; set-up: ATPlite luminescence viability of PDAC cell lines, 11-dose single-agent curves, 4-parameter fit; details: 72 h, read-out: EC50 [nM]
Method: as §1

[15] = system: MiaPaCa-2; set-up: ATPlite luminescence viability of PDAC cell lines, 11-dose single-agent curves, 4-parameter fit; details: Homo sapiens, MIA PaCa-2, 72 h, read-out: EC50 [nM]
Method: as §1

[16] = system: PSN-1; set-up: ATPlite luminescence viability of PDAC cell lines, 11-dose single-agent curves, 4-parameter fit; details: Homo sapiens, PSN1, 72 h, read-out: EC50 [nM]
Method: as §1

[17] = system: BxPC-3; set-up: ATPlite luminescence viability of PDAC cell lines, 11-dose single-agent curves, 4-parameter fit; details: Homo sapiens, BXPC-3, 72 h, read-out: EC50 [nM]
Method: as §1

[18] = system: Suit2-07; set-up: ATPlite luminescence viability of PDAC cell lines, 11-dose single-agent curves, 4-parameter fit; details: 72 h, read-out: EC50 [nM]
Method: as §1

[19] = system: Dan-G; set-up: ATPlite luminescence viability of PDAC cell lines, 11-dose single-agent curves, 4-parameter fit; details: 72 h, read-out: EC50 [nM]
Method: as §1

Row | Compound | EC50 [1] [nM] | EC50 [2] [nM] | EC50 [3] [nM] | EC50 [4] [nM] | EC50 [5] [nM] | EC50 [6] [nM] | EC50 [7] [nM] | EC50 [8] [nM] | EC50 [9] [nM] | EC50 [10] [nM] | EC50 [11] [nM] | EC50 [12] [nM] | EC50 [13] [nM] | EC50 [14] [nM] | EC50 [15] [nM] | EC50 [16] [nM] | EC50 [17] [nM] | EC50 [18] [nM] | EC50 [19] [nM]
1 | Clc1ccc(Nc2nnc(Cc3ccncc3)c3ccccc23)cc1 [Vatalanib] | > 10000 | 9360 | 4530 | 3990 | 6860 | 6650 | 32.8 | 23.9 | > 10000 | > 10000 | 4870 | 3840 | > 10000 |  |  |  |  |  | 
2 | Cc1cc(F)c(C(=O)Nc2cccc(-c3nncn3C(C)C)n2)cc1-n1cnc(C2CC2)c1 [Selonsertib] | 755 | > 10000 | 8570 | > 10000 | 10300 | > 10000 | > 10000 | 3.85 | 4950 | 8800 | 6150 | 5440 | 4310 |  |  |  |  |  | 
3 | CC(C)Oc1ccc(-c2nn([C@@H](C)c3oc4ccc(F)cc4c(=O)c3-c3cccc(F)c3)c3ncnc(N)c23)cc1F [Umbralisib] | 26.5 | 683 | 39.7 | 0.12 | 441 | 8790 | 6540 | 1370 | > 10000 | 655 | 62.6 | 4550 | 1310 |  |  |  |  |  | 
4 | N#CCC1(n2cc(-c3ncnc4[nH]ccc34)cn2)CN(C2CCN(C(=O)c3ccnc(C(F)(F)F)c3F)CC2)C1 [Itacitinib] | 17.1 | 52.1 | 142 | 75 | 3820 | 1420 | 873 | 316 | 770 | 21.2 | 124 | 292 | 72.1 |  |  |  |  |  | 
5 | Cc1cn(-c2cc(NC(=O)c3ccc(C)c(Nc4nccc(-c5cnccn5)n4)c3)cc(C(F)(F)F)c2)cn1 [Radotinib] | 1050 | 1780 | 4010 | 196 | 5910 | 4270 | 6.45 | > 10000 | 3580 | 260 | 11 | 1390 | 99.5 |  |  |  |  |  | 
6 | O=c1sn(-c2cccc3ccccc23)c(=O)n1Cc1ccccc1 [Tideglusib] | 66.8 | 2600 | 51.8 | 24.5 | 1490 | 2070 | 58 | 4540 | 344 | > 10000 | 0.13 | 636 | 9730 |  |  |  |  |  | 
7 | [2H]C([2H])([2H])NC(=O)c1nnc(NC(=O)C2CC2)cc1Nc1cccc(-c2ncn(C)n2)c1OC [BMS986165] | 4870 | > 10000 |  | 9560 | 3350 | > 10000 | 2330 | 4610 | 7220 | 2070 | 7570 | > 10000 | > 10000 |  |  |  |  |  | 
8 | O=C(Nc1nc2cccc(-c3ccc(CN4CCS(=O)(=O)CC4)cc3)n2n1)C1CC1 [Filgotinib] | 305 | 9420 | 5940 | 3490 | 6150 |  | 1990 | 172 |  | 43.9 |  | > 10000 | 2150 | 8160 | > 10000 | 7590 |  |  | 
9 | C=CC(=O)N1CCC(CNc2ncnc(N)c2-c2ccc(Oc3ccccc3)cc2)CC1 [Evobrutinib] | 1070 | 2910 | > 10000 | 31.5 | 493 |  | 2.61 |  | 4490 | > 10000 | 571 | 213 | 1.96 |  |  |  |  |  | 
10 | CCc1cc2c(cc1N1CCC(N3CCOCC3)CC1)C(C)(C)c1[nH]c3cc(C#N)ccc3c1C2=O [Alectinib] |  | 99.3 |  | 220 | > 10000 | 9090 | 2130 | 680 | 71.8 | 80.3 | 0.05 | 28 | 2390 |  |  |  |  |  | 
11 | CCN1C(=O)N(c2c(F)c(OC)cc(OC)c2F)Cc2cnc3[nH]c(CN4CCOCC4)cc3c21 [Pemigatinib] | 3480 |  | 2030 | 2990 | 2970 |  | 3380 | 3.44 |  | 442 | 2710 | 3280 |  | 3320 | > 10000 |  | 1370 | 3040 | 
12 | Cc1cc2c(F)c(Oc3ncnn4cc(OC[C@@H](C)O)c(C)c34)ccc2[nH]1 [Brivanib] | 156 | 3.14 | > 10000 | 8830 | > 10000 |  | > 10000 | 5470 | 7100 | > 10000 | > 10000 | 9580 | > 10000 |  |  |  |  |  | 
13 | C[C@H](Nc1ncnc2nc[nH]c12)c1cc2cccc(Cl)c2c(=O)n1-c1ccccc1 [Duvelisib] | > 10000 | 2870 | 4650 | 3070 |  | 4250 | 6900 | 109 | 2130 | 1590 | 883 | > 10000 | > 10000 |  |  |  |  |  | 5640
14 | CN1CC[C@@H](NC(=O)Nc2ccc(C#N)cc2)C[C@@H]1c1nc2ccccc2[nH]1 [Glasdegib] | 28.4 | 164 |  | 352 | 176 | 1230 | 110 | 208 | > 10000 | 2580 | 846 | 0.5 | 523 |  |  |  |  |  | 
15 | Cc1ccc(F)c(NC(=O)Nc2ccc(-c3cccc4[nH]nc(N)c34)cc2)c1 [Linifanib] | 32.7 | 792 | 47 | 131 | 27.9 | 3290 | 311 | 1100 | 1830 | 1420 | > 10000 |  | 864 |  |  |  |  |  | 
16 | CNC(=O)c1ccc(Nc2ncc(C(F)(F)F)c(NCc3nccnc3N(C)S(C)(=O)=O)n2)cc1 [Defactinib] | 3350 |  | 3400 | 3820 | 7590 |  | 3690 | 441 |  | 142 |  | 9750 | > 10000 | > 10000 | 4660 | 4590 | > 10000 |  | 
